Test results taken from PubChem BioAssay (NCI).
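48-hour exposure; five concentrations; linearly interpolated endpoints. TGI denotes the concentration required for complete inhibition of growth.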

What was measured:
Assay in all cases: inhibition of tumour cell growth, NCI panel, 48 h
786-0 renal = tested on: 786-0 renal
A549 NSCLC = tested on: A549 NSCLC
ACHN renal = tested on: ACHN renal
BT-549 breast = tested on: BT-549 breast
CAKI-1 renal = tested on: CAKI-1 renal
COLO 205 colon = tested on: COLO 205 colon
DU-145 prostate = tested on: DU-145 prostate
EKVX NSCLC = tested on: EKVX NSCLC
HCC-2998 colon = tested on: HCC-2998 colon
HCT-116 colon = tested on: HCT-116 colon
HCT-15 colon = tested on: HCT-15 colon
HOP-62 NSCLC = tested on: HOP-62 NSCLC
HS 578T breast = tested on: HS 578T breast
HT29 colon = tested on: HT29 colon
IGROV1 ovarian = tested on: IGROV1 ovarian
KM12 colon = tested on: KM12 colon
LOX IMVI melanoma = tested on: LOX IMVI melanoma
M14 melanoma = tested on: M14 melanoma
MALME-3M melanoma = tested on: MALME-3M melanoma
MCF7 breast = tested on: MCF7 breast
MDA-MB-231 breast = tested on: MDA-MB-231 breast
MDA-N = tested on: MDA-N
NCI-H226 lung = tested on: NCI-H226 lung
NCI-H23 lung = tested on: NCI-H23 lung
NCI-H460 lung = tested on: NCI-H460 lung
NCI-H522 lung = tested on: NCI-H522 lung
NCI/ADR-RES ovarian = tested on: NCI/ADR-RES ovarian
OVCAR-3 ovarian = tested on: OVCAR-3 ovarian
OVCAR-5 ovarian = tested on: OVCAR-5 ovarian
OVCAR-8 ovarian = tested on: OVCAR-8 ovarian
PC-3 prostate = tested on: PC-3 prostate
RXF 393 renal = tested on: RXF 393 renal
SF-268 CNS = tested on: SF-268 CNS
SF-295 CNS = tested on: SF-295 CNS
SF-539 CNS = tested on: SF-539 CNS
SK-MEL-5 melanoma = tested on: SK-MEL-5 melanoma
SK-OV-3 ovarian = tested on: SK-OV-3 ovarian
SNB-19 CNS = tested on: SNB-19 CNS
SNB-75 CNS = tested on: SNB-75 CNS
TK-10 renal = tested on: TK-10 renal
UACC-257 melanoma = tested on: UACC-257 melanoma
UACC-62 melanoma = tested on: UACC-62 melanoma
UO-31 renal = tested on: UO-31 renal
CCRF-CEM leukemia = tested on: CCRF-CEM leukemia
HL-60(TB) leukemia = tested on: HL-60(TB) leukemia
HOP-92 NSCLC = tested on: HOP-92 NSCLC
K-562 leukemia = tested on: K-562 leukemia
MDA-MB-435 = tested on: MDA-MB-435
MOLT-4 leukemia = tested on: MOLT-4 leukemia
RPMI-8226 leukemia = tested on: RPMI-8226 leukemia
SK-MEL-28 melanoma = tested on: SK-MEL-28 melanoma
SN12C renal = tested on: SN12C renal
SR leukemia = tested on: SR leukemia
SW-620 colon = tested on: SW-620 colon

Measured: TGI

Fc1cc(-c2ncc(Cl)cc2Cl)c2cccccc1-2
not listed: CCRF-CEM leukemia | HL-60(TB) leukemia | HOP-92 NSCLC | K-562 leukemia | MDA-MB-435 | MOLT-4 leukemia | RPMI-8226 leukemia | SK-MEL-28 melanoma | SN12C renal | SR leukemia | SW-620 colon
> 100 µM: all other assays above

CCOC(=O)C(C)(C)/C=C\C(Cl)=C(Cl)Cl
not listed: BT-549 breast | HCT-15 colon | MCF7 breast | NCI-H460 lung
> 100 µM: all other assays above
